Molecular target: T1, mouse Tas2r108 (Mus musculus, UniProt Q9JKT3)
T1 construct: expressed in transfected cells; host or cells: HEK293T-Gα16gust44
T1 sequence (Q9JKT3 1-297): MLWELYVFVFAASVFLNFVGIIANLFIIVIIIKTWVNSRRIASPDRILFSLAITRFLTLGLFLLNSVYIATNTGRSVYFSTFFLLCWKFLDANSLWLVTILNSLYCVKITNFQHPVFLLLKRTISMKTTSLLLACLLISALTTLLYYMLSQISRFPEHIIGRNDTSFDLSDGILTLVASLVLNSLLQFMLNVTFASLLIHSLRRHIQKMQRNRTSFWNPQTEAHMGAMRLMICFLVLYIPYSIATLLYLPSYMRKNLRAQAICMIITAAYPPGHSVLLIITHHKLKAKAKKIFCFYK
Assay: Calcium imaging assay (FLIPR), HEK293T-Gα16gust44 cells transfected with mouse Tas2r108
Type: cell-based
Procedure: This set of bile acids was chosen because of their commercial availability in high purities, their diversity within the class of bile acids and their previous detection and quantitation in human blood. Stock solutions were prepared in DMSO.
As basal growth medium for the HEK293T-Gα16gust44 cell line[17],[59] served Dulbecco’s modified eagle medium (DMEM) (Thermo Fisher Scientific, Darmstadt, Germany) supplemented with 10 % fetal bovine serum (Sigma-Aldrich, Steinheim, Germany), 2 mM L-glutamine (Sigma-Aldrich, Steinheim, Germany), 100 units/ml penicillin (Sigma Aldrich, Steinheim, Germany) and 100 µg/ml streptomycin (Sigma Aldrich, Steinheim, Germany). Growth conditions were 37 °C, 5 % CO2 and saturated air-humidity[60].
HEK293T-Gα16gust44 cells were seeded on poly-D-lysine (10 µg/ml) coated 96-well plates to reach a confluence of 40-60 % the next day. For transient transfection 150 ng of plasmid DNA containing the receptor of interest and 0.3 µl lipofectamine 2000 (Thermo Fisher Scientific, Darmstadt, Germany) per well were used and transfection took place according to the manual of lipofectamine 2000. […] The empty vector DNA (mock) was transfected as negative control[14],[41].
Cells were loaded using the calcium-sensitive fluorescent dye Fluo-4-AM (Abcam, Cambridge, Great Britain) in the presence of 2.5 mM probenecid (Sigma-Aldrich, Steinheim, Germany) the day after transfection[13],[41]. 1 h after loading, cells were washed with C1 buffer using a BioTek Cell Washer, incubated in the dark for half an hour and washed again. For automated agonist application and measurement of fluorescence changes, a FLIPR^TETRA device (Molecular Devices, San José, United States) was used. Viability of cells was tested by application of 100 nM Somatostatin 14 (Bachem, Bubendorf, Switzerland)[42].
Measured data were negative control corrected by subtracting the signal of the mock-transfected cells and exported to Microsoft Excel using the FLIPR software ScreenWorks 4.2. In Microsoft Excel software, standardization of maximum fluorescence intensities to the basal fluorescence and normalization to the buffer-only control was done to calculate the relative fluorescence changes (ΔF/F).
Initial screening experiments performed in duplicate wells were confirmed by at least one replication and representative traces were selected for display. All dose-response relationships were determined by three independent experiments (biological replicates) performed in duplicates (technical replicates). Threshold concentrations, defined as lowest substance concentrations leading to statistically significant elevated fluorescence changes in receptor-transfected cells compared with empty vector-transfected cells, were determined using SigmaPlot with Student’s t-test to evaluate statistical significance (p < 0.01).

Which RLU (Time 0 s) does the source give for C[C@H](CCC(=O)NCCS(=O)(=O)O)[C@H]1CC[C@H]2[C@@H]3CC[C@@H]4C[C@H](O)CC[C@]4(C)[C@H]3CC[C@]12C [Taurolithocholic Acid, taurolithocholic acid] here?
The RLU was 0 RLU.

What about the RLU (Time 2 s) of the same compound?
The RLU was 0.6757 RLU.

And the RLU (Time 4 s)?
Its RLU is -5.736 RLU.

And the RLU (Time 6 s)?
Its RLU is 6.046 RLU.

And the RLU (Time 8 s)?
Its RLU is 39.2838 RLU.

And the RLU (Time 12 s)?
Its RLU is 8.803 RLU.

What about the RLU (Time 14 s) of the same compound?
The RLU was 5.215 RLU.

What about the RLU (Time 16 s) of the same compound?
The RLU was -9.6707 RLU.

What about the RLU (Time 18 s) of the same compound?
Its RLU is -10.699 RLU.

What about the RLU (Time 18.781 s) of the same compound?
The RLU was 51.1832 RLU.

What about the RLU (Time 20.781 s) of the same compound?
Its RLU is 31.0896 RLU.

And the RLU (Time 22.781 s)?
Its RLU is 17.366 RLU.

What about the RLU (Time 24.781 s) of the same compound?
The RLU was 13.0906 RLU.

What about the RLU (Time 26.781 s) of the same compound?
Its RLU is 51.6272 RLU.

And the RLU (Time 28.781 s)?
Its RLU is 63.3328 RLU.

What about the RLU (Time 30.781 s) of the same compound?
The RLU was 109.429 RLU.

And the RLU (Time 32.781 s)?
Its RLU is 151.07 RLU.

And the RLU (Time 34.781 s)?
The RLU was 184.905 RLU.

What about the RLU (Time 36.781 s) of the same compound?
Its RLU is 210.816 RLU.

What about the RLU (Time 38.781 s) of the same compound?
The RLU was 242.967 RLU.

And the RLU (Time 40.781 s)?
The RLU was 265.916 RLU.

And the RLU (Time 42.781 s)?
The RLU was 261.677 RLU.

And the RLU (Time 44.781 s)?
The RLU was 303.058 RLU.

And the RLU (Time 46.781 s)?
Its RLU is 324.099 RLU.

And the RLU (Time 48.781 s)?
Its RLU is 311.969 RLU.

What about the RLU (Time 50.781 s) of the same compound?
Its RLU is 342.074 RLU.

And the RLU (Time 52.781 s)?
The RLU was 343.185 RLU.

What about the RLU (Time 54.781 s) of the same compound?
Its RLU is 378.711 RLU.

And the RLU (Time 56.781 s)?
Its RLU is 389.7 RLU.

And the RLU (Time 58.781 s)?
The RLU was 401.227 RLU.

And the RLU (Time 60.781 s)?
Its RLU is 410.325 RLU.

And the RLU (Time 62.781 s)?
The RLU was 416.305 RLU.

And the RLU (Time 64.781 s)?
Its RLU is 417.574 RLU.

And the RLU (Time 66.781 s)?
The RLU was 434.462 RLU.

And the RLU (Time 68.781 s)?
Its RLU is 456.387 RLU.

And the RLU (Time 70.781 s)?
Its RLU is 443.293 RLU.

And the RLU (Time 72.781 s)?
The RLU was 455.898 RLU.

What about the RLU (Time 74.781 s) of the same compound?
Its RLU is 461.633 RLU.

And the RLU (Time 76.781 s)?
Its RLU is 455.071 RLU.

What about the RLU (Time 78.781 s) of the same compound?
Its RLU is 466.188 RLU.

What about the RLU (Time 80.781 s) of the same compound?
Its RLU is 477.183 RLU.

What about the RLU (Time 82.781 s) of the same compound?
The RLU was 506.736 RLU.

And the RLU (Time 84.781 s)?
Its RLU is 503.228 RLU.

And the RLU (Time 86.781 s)?
The RLU was 489.189 RLU.

What about the RLU (Time 88.781 s) of the same compound?
The RLU was 473.872 RLU.

And the RLU (Time 90.781 s)?
Its RLU is 497.168 RLU.

And the RLU (Time 92.781 s)?
Its RLU is 472.229 RLU.

What about the RLU (Time 94.781 s) of the same compound?
The RLU was 481.838 RLU.

What about the RLU (Time 96.781 s) of the same compound?
The RLU was 467.082 RLU.

What about the RLU (Time 98.781 s) of the same compound?
The RLU was 510.678 RLU.

What about the RLU (Time 100.781 s) of the same compound?
Its RLU is 498.898 RLU.

What about the RLU (Time 102.781 s) of the same compound?
The RLU was 493.381 RLU.

What about the RLU (Time 104.781 s) of the same compound?
Its RLU is 508.478 RLU.

What about the RLU (Time 106.781 s) of the same compound?
The RLU was 488.526 RLU.

And the RLU (Time 108.781 s)?
The RLU was 487.641 RLU.

What about the RLU (Time 110.781 s) of the same compound?
The RLU was 528.304 RLU.

And the RLU (Time 112.781 s)?
The RLU was 500.584 RLU.

What about the RLU (Time 114.781 s) of the same compound?
The RLU was 484.964 RLU.

What about the RLU (Time 116.781 s) of the same compound?
Its RLU is 486.198 RLU.

And the RLU (Time 118.781 s)?
The RLU was 494.318 RLU.

And the RLU (Time 120.781 s)?
The RLU was 504.713 RLU.

And the RLU (Time 122.781 s)?
The RLU was 501.616 RLU.

What about the RLU (Time 124.781 s) of the same compound?
Its RLU is 482.612 RLU.

And the RLU (Time 126.781 s)?
Its RLU is 503.591 RLU.

What about the RLU (Time 128.781 s) of the same compound?
The RLU was 486.957 RLU.

And the RLU (Time 130.781 s)?
The RLU was 500.459 RLU.

And the RLU (Time 132.781 s)?
Its RLU is 472.597 RLU.

What about the RLU (Time 134.781 s) of the same compound?
The RLU was 498.526 RLU.

What about the RLU (Time 136.781 s) of the same compound?
The RLU was 501.497 RLU.

And the RLU (Time 137.547 s)?
Its RLU is 471.412 RLU.

What about the RLU (Time 143.547 s) of the same compound?
Its RLU is 482.177 RLU.

And the RLU (Time 149.547 s)?
Its RLU is 466.386 RLU.

What about the RLU (Time 155.547 s) of the same compound?
The RLU was 451.788 RLU.

What about the RLU (Time 161.547 s) of the same compound?
Its RLU is 449.152 RLU.

And the RLU (Time 167.547 s)?
Its RLU is 425.382 RLU.

And the RLU (Time 173.547 s)?
Its RLU is 442.283 RLU.

And the RLU (Time 179.547 s)?
The RLU was 425.607 RLU.

And the RLU (Time 185.547 s)?
Its RLU is 410.079 RLU.

And the RLU (Time 191.547 s)?
The RLU was 397.165 RLU.

What about the RLU (Time 197.547 s) of the same compound?
Its RLU is 392.705 RLU.

And the RLU (Time 203.547 s)?
The RLU was 382.875 RLU.

And the RLU (Time 209.547 s)?
The RLU was 387.748 RLU.

And the RLU (Time 215.547 s)?
Its RLU is 381.118 RLU.

And the RLU (Time 221.547 s)?
Its RLU is 374.673 RLU.

And the RLU (Time 227.547 s)?
Its RLU is 340.738 RLU.

And the RLU (Time 233.547 s)?
The RLU was 357.908 RLU.

What about the RLU (Time 239.547 s) of the same compound?
Its RLU is 329.058 RLU.

And the RLU (Time 245.547 s)?
The RLU was 312.353 RLU.

And the RLU (Time 293.547 s)?
The RLU was 280.532 RLU.

What about the RLU (Time 299.547 s) of the same compound?
The RLU was 302.8 RLU.

What about the “Activation threshold concentration Tas2r108” value (p < 0.01 vs empty vector) of the same compound?
Its value is 1 µM.

What about the RLU (time 305.547 s) of the same compound?
Its RLU is 271.906 RLU.

What about the RLU (time 311.547 s) of the same compound?
The RLU was 293.129 RLU.

And the RLU (time 317.547 s)?
Its RLU is 296.196 RLU.

And the RLU (time 323.547 s)?
The RLU was 325.759 RLU.

And the RLU (time 329.547 s)?
The RLU was 278.402 RLU.

What about the RLU (time 335.547 s) of the same compound?
Its RLU is 309.885 RLU.

What about the RLU (time 341.547 s) of the same compound?
Its RLU is 315.03 RLU.

What about the RLU (time 347.547 s) of the same compound?
Its RLU is 300.184 RLU.

What about the RLU (time 353.547 s) of the same compound?
The RLU was 294.817 RLU.

And the RLU (time 359.547 s)?
The RLU was 274.663 RLU.

— article PMC10247784, “Physiological activation of human and mouse bitter taste receptors by bile acids” (Communications Biology, 2023)
